# Read-outs that look alike come from different tables or passages of the source.
# Legend:
# [1] = system: Canadida albicans TIMM 3165; test: In vitro antifungal activity, MIC by broth microdilution (Candida species); format: cell-based; settings: TIMM3165, lowest concentration causing at least 80% growth inhibition, RPMI1640 pH 7.0, 35° C., 24-72 hours, read-out: MIC value C.a. (3)
# Method: (§1) The antifungal activities of test compounds were assessed according to their minimum inhibitory concentrations (MICs) which were measured by the methods described below.
# (§2) 1(i) Measurement Method for Candida Species
# (§3) A modified version of the procedure described in Japanese Journal of Medical Mycology, 36, 62 (1995) was used, MICs being determined by the broth microdilution method. Each test compound was dissolved in dimethyl sulfoxide (DMSO). Serial two-fold dilutions of each compound were prepared with DMSO and then final dilutions were prepared with RPMI1640 medium (product of Dainippon Pharmaceutical Co., Ltd.) which was buffered to pH 7.0 with 0.165 M 3-(morpholino)propanesulfonic acid (MOPS). […] Colonies of the test fungi were suspended in physiological saline followed by adjustment to 5.0×10^2 to 2.5×10^3 cells/ml with RPM11640 medium which was buffered to pH 7.0 with 0.165 M MOPS. 100 μl of the fungal suspension were added to each of the wells of microtitre plates and then 100 μl of each diluted test compound were added to one of said wells and mixed with the fungal suspension therein, before incubating at 35° C. for 24-72 hours. […] The MICs were defined as the lowest compound concentrations causing at least 80% growth inhibition when compared with the control.
# d) C.a. (3): Canadida albicans TIMM 3165.
# [2] = system: Canadida albicans ATCC 64550; test: as above; format: cell-based; settings: ATCC64550, lowest concentration causing at least 80% growth inhibition, RPMI1640 pH 7.0, 35° C., 24-72 hours, read-out: MIC value C.a. (1)
# Method: as §1, §2, §3
# b) C.a. (1): Canadida albicans ATCC 64550.
# [3] = Acid stability test (half-life in 0.01 N HCl); format: physicochemical; settings: 0.01 N HCl (pH 2.0), initial 50 μg/ml, 37° C., HPLC, read-out: t1/2, stability in acidic solution
# Method: A small amount of the solution was taken from the reaction solution at predetermined time intervals and the reaction was stopped in these samples by neutralizing with an aqueous sodium hydroxide solution. Quantitative determination of the residual rate of the test compound in the solution was determined by HPLC.
# The half-life (t½) of the test compound in 0.01 N HCl was determined according to the following equation using the degradation rate constant kdeg which was determined by semi-logarithmic regression analysis of the residual rate in the solution.
# [4] = system: Cryptococcus neoformans TIMM 0362; test: In vitro antifungal activity, MIC by broth microdilution (Cryptococcus neoformans); format: cell-based; settings: TIMM0362, lowest concentration causing at least 50% growth inhibition (absorbance 485 nm), yeast nitrogen base pH 7.0, 35° C., 48-72 hours, read-out: MIC value C.n.
# Method: as §1
# 1(ii) Measurement Method for Cryptococcus neoformans
# A modified version of the Broth Dilution Antifuinal Susceptibility Testing of Yeast; Approved Standard M27-A (Vol. 17, No. 9, June 1997, NCCLS) was used, MICs being determined by the broth microdilution method. Each test compound was dissolved in DMSO. Serial two-fold dilutions of each compound were prepared with DMSO and final dilutions were prepared with yeast nitrogen base medium (product of Difco Laboratories) buffered to pH 7.0 with 0.165 M MOPS. […] Colonies of the test fungi were suspended in physiological saline followed by adjustment to 5.0×10^3 to 2.5×10^4 cells/ml with yeast nitrogen base medium buffered to pH 7.0 with 0.165 M MOPS. 100 μl of the fungal suspension were added to each of the wells of microtitre plates and then 100 μl of each diluted test compound were added to one of said wells and mixed with the fungal suspension therein, before incubating at 35° C. for 48-72 hours. […] The MICs were defined as the lowest compound concentrations causing at least 50% growth inhibition when compared with the control as measured by light absorbance at 485 nm.
# e) C.n.: Cryptococcus neoformans TIMM 0362.
# [5] = system: Aspergillus fumigatus SANK 10569; test: In vitro antifungal activity, MIC by broth microdilution (Aspergillus species); format: cell-based; settings: SANK10569, lowest concentration causing at least 80% growth inhibition, RPMI1640 pH 7.0, 30° C., 24-72 hours, read-out: MIC value A.f.
# Method: The antifungal activities of test compounds were assessed according to their minimum inhibitory concentrations (MICs) which were measured by the methods described below. 1(iii) Measurement Method for Aspergillus Species A modified version of the protocol in Antimicrob. Agents Chemother., 39, 314 (1995) was used, MICs being determined by the broth microdilution method. Test compounds were dissolved in dimethyl sulfoxide (DMSO). Serial two-fold dilutions of each compound were prepared with DMSO and then final dilutions were prepared with RPMI1640 medium (product of Dainippon Pharmaceutical Co., Ltd.) buffered to pH 7.0 with 0.165 M MOPS.
# [6] = Oral absorption rate (bioavailability) in SD rats; format: in vivo; settings: rat, blood; fasted SD rats; oral 20 mg/kg vs intravenous 2 mg/kg in PEG 400; AUCpo(0-48 h)/AUCiv(0-∞), dose-corrected; read-out: BA (bioavailability)
# Method: A test compound in polyethylene glycol 400 (PEG 400) was administered either orally (4 animals) or intravenously into the caudal vein (3 animals) of SD rats (age 7 weeks) which had fasted overnight. The oral dose of the test compound was 20 mg per kg of rat body weight. The intravenous dose of the test compound injected into the caudal vein was 2 mg per kg of rat body weight. The amount of PEG 400 used was 1 ml per kg of rat body weight for both oral and intravenous administration. The bioavailability (BA) values were calculated according to the following equation using the integrated values of the blood concentration of the test compound up to 48 hours after oral administration [AUCpo(0-48 h)], and the integrated values of the blood concentration extrapolated from 0 to infinite time after intravenous administration into the caudal vein [AUCiv(0-∞)].
# BA(%)={[(AUCpo(0-48))/(dosepo)]/[(AUCiv(0-∞))/(doseiv)]}×100
# The larger the value of BA, the higher the oral absorption rate. The results for the compound of formula (Ib) of the present invention and those for Comparative Compounds A, B and C are shove in Table 3.
# [7] = system: Canadida albicans TIMM 3164; test: In vitro antifungal activity, MIC by broth microdilution (Candida species); format: cell-based; settings: TIMM3164, lowest concentration causing at least 80% growth inhibition, RPMI1640 pH 7.0, 35° C., 24-72 hours, read-out: MIC value C.a. (2)
# Method: as §1, §2, §3
# c) C.a. (2): Canadida albicans TIMM 3164.
# [8] = 0.01 N hydrochloric acid with 30% acetonitrile
MIC [1],MIC [2],"half-life at 50 μg/ml [3, 8]",MIC [4],MIC [5],bioavailability [6],MIC [7],"half-life at 50 μg/ml ([3]; buffer, 30% acetonitrile)",Compound
0.125 to 0.25 µg/mL,0.5 to 1 µg/mL,3.12 min,0.016 µg/mL,0.031 µg/mL,50.7%,0.016 µg/mL,,"C[C@@H](S[C@H]1CO[C@H](/C=C/C=C/c2ccc(C#N)cc2)OC1)[C@](O)(Cn1cncn1)c1ccc(F)cc1F [Comparative Compound (A), (2R,3R)-3-[[trans-2-[(1E,3E)-4-(4-Cyanophenyl)-1,3-butadien-1-yl]-1,3-dioxan-5-yl]thio]-2-(2,4-difluorophenyl)-1-(1H-1,2,4-triazol-1yl)-2-butanol]"
0.125 to 0.25 µg/mL,0.5 µg/mL,1.54 min,≤ 0.008 µg/mL,0.125 µg/mL,6.24%,0.031 to 0.063 µg/mL,,C[C@@H](S[C@H]1CO[C@H](/C=C/C=C/c2ccc(F)cc2F)OC1)[C@](O)(Cn1cncn1)c1ccc(F)cc1F [Comparative Compound (B)]
,,2.42 min,,,57.8%,,,CC(C[C@H]1CO[C@H](/C=C/C=C/c2ccc(C#N)cc2F)OC1)C(O)(Cn1cncn1)c1ccc(F)cc1F (some centres unmarked) [Comparative Compound (C)]
0.063 µg/mL,0.25 µg/mL,,≤ 0.008 µg/mL,0.031 µg/mL,123%,≤ 0.008 µg/mL,6.4 min,"C[C@@H](S[C@H]1CO[C@H](/C=C/C=C/c2ccc(C#N)cc2F)OC1)[C@](O)(Cn1cncn1)c1ccc(F)cc1F [Compound (Ib), (2R,3R)-3-[[trans-2-[(1E,3E)-4-(4-Cyano-2-fluorophenyl)-1,3-butadien-1-yl]-1,3-dioxan-5-yl]thio]-2-(2,4-difluorophenyl)-1-(1H-1,2,4-triazol-1-yl)-2-butanol]"

# Reference: US6392082B1, “Triazole derivatives having antifungal activity” (Sankyo Company, Limited, priority 1999, dated 2002)
